Reference: US8765779B2, “Tricyclic derivatives and their pharmaceutical use and compositions” (Cephalon, Inc., priority 2009, dated 2014)
Structures can show the parent of a compound that is named as a salt.

Molecular target: T1, human 5-HT6 receptor (Homo sapiens, UniProt P50406)
T1 construct: host or cells: CHO-K1 cells, stably transfected; membranes prepared in house
Assay: Human 5-HT6 Receptor Binding Assay ([3H]LSD displacement, scintillation beads)
Details: membranes of CHO-K1 cells with recombinant human 5-HT6, 4 nM [3H]LSD; Table 1, class symbols; read-out: h5-HT6 (Ki)
Experimental: Human 5-HT6 Receptor Binding Assay
Membranes were prepared from CHO—K1 cells stably transfected with the human 5-HT6 receptor (Euroscreen; ES-316-C). The cells were grown in Gibco Advanced DMEM-F12 (Cat#12634010) containing 2% dialyzed FBS (Hyclone Cat#SH30079.03). The cells were harvested in phosphate buffered saline (PBS) containing 0.1 mM EDTA and pelleted by centrifugation (1000×g), the supernatant was discarded and the pellets were stored at −80° C. prior to membrane preparation. Membranes were prepared as previously described (J Bio Chem. 1992, 267 (14) 9844-51). Briefly, frozen cell pellet was resuspended in a lysis buffer containing 5 mM Tris-HCl (pH 7.5), 5 mM EDTA and 1 complete EDTA-free protease inhibitor tablet (Roche Applied Science, Indianapolis, Ind.) per 50 mL buffer, and homogenized with a tissue homogenizer. The cell lysate was then centrifuged at 40,000×g for 30 min at 4° C. to collect the membranes. The membrane pellets were washed in membrane buffer (50 mM Tris-HCl (pH 7.5), 0.6 mM EDTA, 5 mM MgCl2, 1 complete EDTA-free protease inhibitor tablet per 50 mL buffer) using a tissue homogenizer. The membranes were centrifuged at 40,000×g for 30 min at 4° C. and the pellets were resuspended in membrane buffer containing 250 mM sucrose, and protein concentration was determined using the Coomassie Plus kit (Pierce Biotechnology, Rockford, Ill.).
Membranes prepared from cells expressing recombinant human 5-HT6 receptor (h5-HT6) were resuspended in assay buffer containing 50 mM Tris HCl, (pH7.4), 4 mM CaCl2, 10 μg/mL saponin, and 0.1% (w/v) ascorbic acid. Membranes were preincubated using 1.75 μg membrane protein and 0.25 mg FlashBlue scintillation beads (PerkinElmer catalogue #FB001) per well at 4° for 30 min. […] Test compounds or assay controls for total and non-specific binding were diluted in DMSO as 100× solutions and serially diluted by half log concentrations on a Perkin Elmer JANUS Automated Workstation. Serotonin (10 μM final concentration) was used to determine non-specific binding in the assay. Plates were read using the Microbeta Trilux 1450 LSC and luminescence counter. Data were analyzed by nonlinear […] using the dose-response equation (variable slope) to calculate IC50 in XLfit4 (ID Business Solutions Inc.): y=(Bottom+((Top−Bottom)/(1+((IC50/x)^Hill slope))))
Ki value was then calculated according to the Cheng-Prusoff method using the equation below (Cheng and Prusoff, 1973): Ki,app=IC50/(1+[radioligand]/Kd))

T1 sequence (P50406 whole entry): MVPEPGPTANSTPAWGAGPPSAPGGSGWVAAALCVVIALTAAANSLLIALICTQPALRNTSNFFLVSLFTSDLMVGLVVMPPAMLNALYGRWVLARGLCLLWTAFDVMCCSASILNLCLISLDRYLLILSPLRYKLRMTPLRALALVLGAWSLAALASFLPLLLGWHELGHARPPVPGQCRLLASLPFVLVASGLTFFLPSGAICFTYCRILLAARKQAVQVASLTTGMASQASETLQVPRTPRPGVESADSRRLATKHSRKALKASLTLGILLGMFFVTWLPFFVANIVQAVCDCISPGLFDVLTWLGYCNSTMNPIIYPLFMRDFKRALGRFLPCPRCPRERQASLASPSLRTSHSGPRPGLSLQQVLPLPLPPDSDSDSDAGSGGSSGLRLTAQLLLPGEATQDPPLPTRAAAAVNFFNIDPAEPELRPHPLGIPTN

Row | Compound | Ki [nM]
1 | O=S(=O)(c1ccc2c(c1)OC1CNCCC21)c1cccnc1F (centres unmarked) [Example 382] | < 500
2 | CC12CCNCC1Oc1ccc(OS(=O)(=O)c3csc4ccccc34)cc12 (centres unmarked) [Example 772] | < 500
3 | CC12CCNCC1Oc1ccc(OS(=O)(=O)Cc3ccc(F)cc3)cc12 (centres unmarked) [Example 790] | > 1000
4 | CC12CCNCC1Oc1cc(S(=O)(=O)c3cncc(F)c3)ccc12 (centres unmarked) [Example 429] | > 1000
5 | COc1ccc(S(=O)(=O)Oc2ccc3c(c2)C2CCNCC2O3)cc1 (centres unmarked) [Example 707] | 500 to 1000
6 | [O-][S+](c1ccc2oc3c(c2c1)CCNC3)c1cccnc1F (centres unmarked) [Example 444] | > 1000
7 | COc1c(F)cc(F)cc1S(=O)(=O)c1ccc2c(c1)OC1CNCCC21 (centres unmarked) [Example 458] | > 1000
8 | O=S(=O)(c1ccc2c(c1)C1CCNCC1O2)N1CCC(c2ccccc2)CC1 (centres unmarked) [Example 861] | 500 to 1000
9 | O=S(=O)(c1cccc(F)c1)c1ccc2oc3c(c2c1)CCNC3CCC(F)(F)F (centres unmarked) [Example 519] | 500 to 1000
10 | O=S(=O)(c1ccc2c(c1)OCCO2)c1ccc2c(c1)C1CCNCC1O2 (centres unmarked) [Example 180] | > 1000
11 | CC12CCNCC1Oc1ccc(OS(=O)(=O)c3ccc4ccccc4c3)cc12 (centres unmarked) [Example 769] | < 500
12 | CC(C)N1CCC2c3ccc(OS(=O)(=O)c4ccc(Cl)cc4)cc3OC2C1 (centres unmarked) [Example 798, 2-(Propan-2-yl)-1,2,3,4,4a,9a-hexahydro[1]benzofuro[2,3-c]pyridin-7-yl-4-chlorobenzenesulfonate] | > 1000
13 | CC(=O)Nc1ccc(S(=O)(=O)Oc2ccc3c(c2)OC2CNCCC32)cc1 (centres unmarked) [Example 667] | > 1000
14 | COc1ccc(S(=O)(=O)c2ccc3c(c2)OC2CNCCC32C)cc1 (racemic) [Example 5, 7-[(4-methoxyphenyl)sulfonyl]-4a-methyl-1,2,3,4,4a,9a-hexahydro[1]benzofuro[2,3-c]pyridine] | 500 to 1000
15 | CC12CCNCC1Oc1ccc(OS(=O)(=O)Cc3ccccc3)cc12 (centres unmarked) [Example 758, 4a-methyl-1,2,3,4,4a,9a-hexahydro[1]benzofuro[2,3-c]pyridin-6-yl phenylmethanesulfonate] | < 500
16 | CC12CCN(C3CCCC3)CC1Oc1ccc(OS(=O)(=O)Cc3ccccc3)cc12 (centres unmarked) [Example 806] | > 1000
17 | COc1cc(S(=O)(=O)c2ccc3c4c(oc3c2)CNCC4(C)C)c[n+]([O-])c1 [Example 450] | > 1000
18 | [O-][S+](c1ccc(Cl)c(C(F)(F)F)c1)c1ccc2c3c(oc2c1)CNCC3 (centres unmarked) [Example 209] | < 500
19 | CC(=O)N1CCC2(CC1)NCCc1c2oc2cc(S(=O)(=O)c3cccc(F)c3)ccc12 [Example 41, 1-{7-[(3-fluorophenyl)sulfonyl]-3,4-dihydro-1′H,2H-spiro[1-benzofuro[2,3-c]pyridine-1,4′-piperidin]-1′-yl}ethanone] | < 500
20 | O=S(=O)(c1cccc(OC(F)(F)F)c1)c1ccc2c3c([nH]c2c1)C1(CCCOC1)NCC3 (single isomer, unassigned) [Example 319] | < 500
21 | O=S(=O)(Oc1ccc2c(c1)OC1CNCCC21)c1ccc(OC(F)(F)F)cc1 (centres unmarked) [Example 682] | < 500
22 | O=S(=O)(c1ccc2c(c1)OC1CNCCC21)c1ccccc1Cl (centres unmarked) [Example 113] | < 500
23 | COc1cc(S(=O)(=O)c2ccc3c4c(oc3c2)C2(CCOC2)NCC4(C)C)c[n+]([O-])c1 (centres unmarked) [Example 453] | > 1000
24 | Cc1ccc(S(=O)(=O)Oc2ccc3c(c2)OC2CNCCC32)cc1Cl (centres unmarked) [Example 659] | > 1000
25 | O=S(=O)(c1ccc2c(c1)OCCO2)c1ccc2c3c(oc2c1)CNCC3 [Example 200] | < 500

Further lines, results first:

Row | Ki [nM] | Compound
26 | < 500 | O=S(=O)(c1cccc(Cl)c1)c1ccc2c3c(oc2c1)CN(CC(F)(F)F)CC3 [Example 604]
27 | < 500 | N#Cc1ccc(S(=O)(=O)c2ccc3c4c(oc3c2)CNCC4)cc1 [Example 220]
28 | < 500 | Nc1cccc(S(=O)(=O)c2ccc3c4c(oc3c2)CNCC4)c1 [Example 342]
29 | < 500 | CC1(C(F)F)NCCc2c1oc1cc(S(=O)(=O)c3ccccc3)ccc21 (centres unmarked) [Example 524]
30 | < 500 | O=S(=O)(c1ccc2c(c1)OC1CNCCC21)c1cccc(F)c1F (centres unmarked) [Example 411]
31 | < 500 | O=S(=O)(c1ccccc1)c1ccc2c3c(oc2c1)CN(CC(F)(F)F)CC3 [Example 598]
32 | < 500 | O=S(=O)(c1cccc(C(F)(F)F)c1)c1ccc2c3c(oc2c1)C1(CCOC1)NCC3 (centres unmarked) [Example 304]
33 | < 500 | CCCCOc1cc(OC)cc(S(=O)(=O)c2ccc3c(c2)OC2CNCCC32)c1 (centres unmarked) [Example 587]
34 | < 500 | Cc1c(S(=O)(=O)Nc2ccc3c(c2)C2CCNCC2O3)sc2ccc(Cl)cc12 (centres unmarked) [Example 830]
35 | < 500 | O=S1(=O)CCC2(CC1)NCCc1c2oc2cc(S(=O)(=O)c3cccc(F)c3)ccc12 [Example 38, 7-[(3-fluorophenyl)sulfonyl]-2′,3,3′,4,5′,6′-hexahydro-2H-spiro[1-benzofuro[2,3-c]pyridine-1,4′-thiopyran] 1′,1′-dioxide]
36 | < 500 | Cc1nc(COc2cccc(S(=O)(=O)c3ccc4c(c3)OC3CNCCC43)c2)cs1 (centres unmarked) [Example 569]
37 | < 500 | CC(C)Oc1cc(F)cc(S(=O)(=O)c2ccc3c(c2)OC2CNCCC32)c1 (single isomer, unassigned) [Example 364, 7-(3-Fluoro-5-isopropoxy-benzenesulfonyl)-1,2,3,4,4a,9a-hexahydro-benzo[4,5]furo[2,3-c]pyridine hydrochloride]
38 | < 500 | O=S(=O)(c1cc(F)cc(OCC2CCOCC2)c1)c1ccc2c(c1)OC1CNCCC21 (centres unmarked) [Example 591]
39 | < 500 | CC(C)Oc1cccc(S(=O)(=O)c2ccc3c4c(oc3c2)C(C)(C)NCC4)c1 [Example 15, 1,1-dimethyl-7-{[3-(propan-2-yloxy)phenyl]sulfonyl}-1,2,3,4-tetrahydro[1]benzofuro[2,3-c]pyridine]
40 | < 500 | CC1NCCc2c1oc1ccc(S(=O)(=O)c3ccc(F)c(F)c3)cc21 (centres unmarked) [Example 284]
41 | < 500 | O=S(=O)(c1ccc2c(c1)OC1CNCCC21)c1cccc2c1CCO2 (centres unmarked) [Example 418]
42 | < 500 | O=S(=O)(c1cccc(Oc2cnccn2)c1)c1ccc2c(c1)OC1CNCCC21 (centres unmarked) [Example 580]
43 | < 500 | COc1cccc(S(=O)(=O)c2ccc3c(c2)OC2CNCCC32)c1 (centres unmarked) [Example 118]
44 | < 500 | O=S(=O)(Oc1ccc2c(c1)OC1CNCCC21)c1c(Cl)nc2sccn12 (centres unmarked) [Example 793]
45 | < 500 | CCCCCOc1cccc(S(=O)(=O)c2ccc3c(c2)OC2CNCCC32)c1 (centres unmarked) [Example 557]
46 | < 500 | O=S(=O)(c1cccc(Cl)c1)c1ccc2c(c1)C1CCNCC1O2 (centres unmarked) [Example 294, 6-[(3-Chlorophenyl)sulfonyl]-1,2,3,4,4a,9a-hexahydro[1]benzofuro[2,3-c]pyridine trifluoroacetic acid salt]
47 | < 500 | CN(C)c1cccc(S(=O)(=O)c2ccc3c4c(oc3c2)CNCC4)c1 [Example 347]
48 | < 500 | O=S(=O)(c1cccnc1)c1ccc2c3c(oc2c1)CNCC3 [Example 438]
49 | < 500 | O=S(=O)(c1cccc(Cl)c1)c1ccc2c3c(oc2c1)C1CCN1CC3 (centres unmarked) [Example 621]
50 | < 500 | O=S(=O)(Oc1ccc2c(c1)OC1CNCCC21)c1ccc(F)cc1 (centres unmarked) [Example 644]
51 | < 500 | CC1(C)CNCc2oc3cc(S(=O)(=O)c4ccccc4)ccc3c21 [Example 286]
52 | < 500 | O=S(=O)(c1cc(F)cc(F)c1)c1ccc2c3c(oc2c1)CNCC3 [Example 107, 7-(3,5-Difluoro-benzenesulfonyl)-1,2,3,4-tetrahydro-benzo[4,5]furo[2,3-c]pyridine hydrochloride]
53 | < 500 | CN(c1ccc2c(c1)OC1CNCCC21)S(=O)(=O)c1c(Cl)nc2sccn12 (centres unmarked) [Example 835, 6-Chloro-N-[1,2,3,4,4a,9a-hexahydro[1]benzofuro[2,3-c]pyridin-7-yl]-N-methylimidazo[2,1-b][1,3]thiazole-5-sulfonamide]
54 | < 500 | O=S(=O)(c1cccc(OCc2ccccn2)c1)c1ccc2c(c1)OC1CNCCC21 (centres unmarked) [Example 562]
55 | < 500 | [O-][S+](c1ccc2oc3c(c2c1)CCNC3)c1ccccc1-c1ccccc1 (centres unmarked) [Example 279]

Same assay, conditions: membranes of CHO-K1 cells with recombinant human 5-HT6, 4 nM [3H]LSD; specific data; read-out: h5-HT6 (Ki)

Row | Ki [nM] | Compound
56 | 93 | O=S(=O)(c1cccc(F)c1)c1ccc2c3c([nH]c2c1)C(C(F)(F)F)NCC3 (stereo not drawn) [Example 527, 7-[(3-fluorophenyl)sulfonyl]-1-(trifluoromethyl)-2,3,4,9-tetrahydro-1H-beta-carboline]
